This note sets out measurements from ChEMBL document CHEMBL5465560, “Selectivity Literature for EUbOPEN Chemogenomic Library” (2024).

The target in experiment [1] is T1, Serine/threonine-protein kinase D3 (Homo sapiens) (UniProt O94806).
T1 sequence (whole entry): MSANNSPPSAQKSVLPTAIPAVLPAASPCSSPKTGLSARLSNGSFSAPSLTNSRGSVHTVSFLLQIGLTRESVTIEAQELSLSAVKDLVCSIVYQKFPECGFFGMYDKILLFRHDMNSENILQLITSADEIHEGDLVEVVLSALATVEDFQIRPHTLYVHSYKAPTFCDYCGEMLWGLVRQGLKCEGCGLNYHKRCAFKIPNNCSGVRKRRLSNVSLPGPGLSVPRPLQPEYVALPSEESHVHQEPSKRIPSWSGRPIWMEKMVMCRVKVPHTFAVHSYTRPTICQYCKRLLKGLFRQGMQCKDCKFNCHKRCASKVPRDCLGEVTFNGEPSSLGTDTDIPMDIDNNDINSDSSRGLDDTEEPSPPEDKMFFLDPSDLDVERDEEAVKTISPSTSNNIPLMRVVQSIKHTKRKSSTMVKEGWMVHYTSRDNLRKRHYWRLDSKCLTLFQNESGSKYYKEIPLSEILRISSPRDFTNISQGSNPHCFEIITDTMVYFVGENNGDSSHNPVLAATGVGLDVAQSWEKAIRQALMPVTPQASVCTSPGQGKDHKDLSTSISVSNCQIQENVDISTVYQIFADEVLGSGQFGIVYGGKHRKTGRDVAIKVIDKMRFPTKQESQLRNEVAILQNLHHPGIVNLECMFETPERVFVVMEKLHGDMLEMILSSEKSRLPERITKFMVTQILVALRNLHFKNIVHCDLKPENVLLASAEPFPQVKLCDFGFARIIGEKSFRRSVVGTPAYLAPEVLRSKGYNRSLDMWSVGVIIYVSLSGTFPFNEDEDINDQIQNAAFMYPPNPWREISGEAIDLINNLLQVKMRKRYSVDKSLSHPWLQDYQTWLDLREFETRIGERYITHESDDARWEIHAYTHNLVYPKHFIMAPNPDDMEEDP
Briefly: Selectivity interaction (KinomeScan (DiscoverX)) EUB0000607a PRKD3. Particulars: at 10 µM.

Experiment [2] concerns the target Serine/threonine-protein kinase 24 (Homo sapiens) (UniProt Q9Y6E0). Briefly: Selectivity interaction (Kinase panel (DSF assay)) EUB0001558a STK24.
Experiment [3] concerns the target T2, Dual specificity tyrosine-phosphorylation-regulated kinase 2 (Homo sapiens) (UniProt Q92630).
T2 sequence (whole entry): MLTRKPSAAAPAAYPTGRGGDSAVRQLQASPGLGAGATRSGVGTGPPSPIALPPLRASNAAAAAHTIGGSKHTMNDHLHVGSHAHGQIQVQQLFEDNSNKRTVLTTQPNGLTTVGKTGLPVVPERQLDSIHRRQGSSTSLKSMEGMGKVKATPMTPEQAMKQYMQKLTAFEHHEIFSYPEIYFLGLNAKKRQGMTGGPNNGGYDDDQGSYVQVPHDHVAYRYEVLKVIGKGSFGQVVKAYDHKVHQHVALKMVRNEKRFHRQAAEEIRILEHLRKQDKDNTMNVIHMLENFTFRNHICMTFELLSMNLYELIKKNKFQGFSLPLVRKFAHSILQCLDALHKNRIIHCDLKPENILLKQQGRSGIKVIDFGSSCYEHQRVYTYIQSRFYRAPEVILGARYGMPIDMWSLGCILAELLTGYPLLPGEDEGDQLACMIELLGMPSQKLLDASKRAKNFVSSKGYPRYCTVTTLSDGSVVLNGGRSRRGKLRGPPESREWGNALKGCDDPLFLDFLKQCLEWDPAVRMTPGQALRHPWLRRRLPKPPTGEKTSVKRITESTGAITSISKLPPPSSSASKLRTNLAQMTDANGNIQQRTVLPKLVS
Briefly: Selectivity interaction (Kinase panel (literature)) EUB0001199aCl DYRK2. Particulars: at 1 µM.

The target in experiment [4] is Ribosomal protein S6 kinase alpha-1 (Homo sapiens, UniProt Q15418). Briefly: Selectivity interaction (ActivX KiNativ screen (kinase selectivity in THP-1 cell lysates)) EUB0000639a RPS6KA1. Type of experiment: subcellular. Particulars: lysate, at 0.2 µM.
Experiment [5] addresses T3, Mitogen-activated protein kinase kinase kinase 6 (Homo sapiens) (UniProt O95382).
T3 sequence (whole entry): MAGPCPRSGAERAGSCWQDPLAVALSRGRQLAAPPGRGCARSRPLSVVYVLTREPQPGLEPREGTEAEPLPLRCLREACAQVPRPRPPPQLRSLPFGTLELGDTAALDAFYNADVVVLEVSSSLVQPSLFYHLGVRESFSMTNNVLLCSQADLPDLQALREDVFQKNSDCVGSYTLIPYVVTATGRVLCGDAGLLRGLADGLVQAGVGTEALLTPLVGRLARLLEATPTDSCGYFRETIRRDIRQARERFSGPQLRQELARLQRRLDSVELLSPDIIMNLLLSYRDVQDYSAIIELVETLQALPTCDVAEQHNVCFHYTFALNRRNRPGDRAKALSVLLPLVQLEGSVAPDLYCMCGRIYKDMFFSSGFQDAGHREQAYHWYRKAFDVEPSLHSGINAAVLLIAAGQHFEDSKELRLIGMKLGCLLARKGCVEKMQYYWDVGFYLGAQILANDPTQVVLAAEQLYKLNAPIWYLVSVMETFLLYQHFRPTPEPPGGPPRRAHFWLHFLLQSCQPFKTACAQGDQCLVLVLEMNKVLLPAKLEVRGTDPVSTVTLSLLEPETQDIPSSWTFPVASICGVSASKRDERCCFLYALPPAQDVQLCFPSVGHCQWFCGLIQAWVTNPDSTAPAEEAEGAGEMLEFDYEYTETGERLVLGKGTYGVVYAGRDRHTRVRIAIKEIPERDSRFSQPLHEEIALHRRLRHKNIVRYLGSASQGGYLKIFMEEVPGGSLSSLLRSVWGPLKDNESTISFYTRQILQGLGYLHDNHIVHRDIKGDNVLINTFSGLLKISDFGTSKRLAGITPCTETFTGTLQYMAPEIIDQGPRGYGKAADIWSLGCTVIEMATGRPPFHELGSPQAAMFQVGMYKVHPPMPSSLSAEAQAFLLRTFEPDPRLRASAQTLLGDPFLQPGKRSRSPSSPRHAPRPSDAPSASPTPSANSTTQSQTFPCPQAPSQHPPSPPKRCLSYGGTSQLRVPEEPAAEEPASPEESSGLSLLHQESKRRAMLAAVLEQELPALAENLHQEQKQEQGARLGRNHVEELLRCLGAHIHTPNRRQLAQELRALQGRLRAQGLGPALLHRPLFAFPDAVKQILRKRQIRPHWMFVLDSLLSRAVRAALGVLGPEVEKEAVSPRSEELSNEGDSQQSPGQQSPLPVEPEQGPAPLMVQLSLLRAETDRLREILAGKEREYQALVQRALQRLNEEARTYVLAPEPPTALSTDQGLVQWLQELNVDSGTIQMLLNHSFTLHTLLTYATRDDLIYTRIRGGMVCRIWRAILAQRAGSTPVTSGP
Briefly: Selectivity interaction (KinomeScan (DiscoverX)) EUB0001049a MAP3K6. Particulars: at 1 µM.

For experiment [6], the target named is Interleukin-1 receptor-associated kinase 1 (Homo sapiens) (UniProt P51617). Briefly: Selectivity interaction (ProQinase) EUB0000171b IRAK1.
Sequence of Interleukin-1 receptor-associated kinase 1 (Homo sapiens) (P51617 whole entry, looked up): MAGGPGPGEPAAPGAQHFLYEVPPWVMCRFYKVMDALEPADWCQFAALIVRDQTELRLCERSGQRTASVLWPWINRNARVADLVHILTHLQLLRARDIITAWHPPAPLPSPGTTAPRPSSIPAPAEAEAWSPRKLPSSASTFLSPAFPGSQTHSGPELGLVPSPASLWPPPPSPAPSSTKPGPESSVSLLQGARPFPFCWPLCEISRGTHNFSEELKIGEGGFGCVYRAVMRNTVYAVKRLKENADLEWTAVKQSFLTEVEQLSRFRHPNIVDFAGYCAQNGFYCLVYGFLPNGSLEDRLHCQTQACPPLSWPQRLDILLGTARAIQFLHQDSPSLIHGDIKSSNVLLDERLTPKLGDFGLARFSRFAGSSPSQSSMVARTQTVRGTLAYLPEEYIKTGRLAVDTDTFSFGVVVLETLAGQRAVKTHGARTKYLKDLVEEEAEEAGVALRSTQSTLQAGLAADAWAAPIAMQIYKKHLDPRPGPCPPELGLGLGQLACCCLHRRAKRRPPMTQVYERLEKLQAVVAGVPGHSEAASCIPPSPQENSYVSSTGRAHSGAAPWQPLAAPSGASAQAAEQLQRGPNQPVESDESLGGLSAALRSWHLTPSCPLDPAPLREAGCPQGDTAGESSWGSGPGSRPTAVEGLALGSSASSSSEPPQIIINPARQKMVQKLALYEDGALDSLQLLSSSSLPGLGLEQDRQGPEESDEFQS

Sequence of Serine/threonine-protein kinase 24 (Homo sapiens) (Q9Y6E0 whole entry, looked up): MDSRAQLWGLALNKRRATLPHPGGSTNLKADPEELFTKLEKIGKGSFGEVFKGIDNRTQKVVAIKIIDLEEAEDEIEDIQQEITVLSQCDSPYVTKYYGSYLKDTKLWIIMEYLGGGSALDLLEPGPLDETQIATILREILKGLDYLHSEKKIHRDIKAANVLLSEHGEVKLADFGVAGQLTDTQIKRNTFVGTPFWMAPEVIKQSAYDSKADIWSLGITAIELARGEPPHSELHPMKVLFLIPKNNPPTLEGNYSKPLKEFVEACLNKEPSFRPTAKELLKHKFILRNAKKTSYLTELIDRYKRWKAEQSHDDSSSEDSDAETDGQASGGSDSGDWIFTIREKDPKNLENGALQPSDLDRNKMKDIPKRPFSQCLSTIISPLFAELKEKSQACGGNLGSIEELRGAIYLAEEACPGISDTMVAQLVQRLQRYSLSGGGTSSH
Sequence of Ribosomal protein S6 kinase alpha-1 (Q15418 whole entry): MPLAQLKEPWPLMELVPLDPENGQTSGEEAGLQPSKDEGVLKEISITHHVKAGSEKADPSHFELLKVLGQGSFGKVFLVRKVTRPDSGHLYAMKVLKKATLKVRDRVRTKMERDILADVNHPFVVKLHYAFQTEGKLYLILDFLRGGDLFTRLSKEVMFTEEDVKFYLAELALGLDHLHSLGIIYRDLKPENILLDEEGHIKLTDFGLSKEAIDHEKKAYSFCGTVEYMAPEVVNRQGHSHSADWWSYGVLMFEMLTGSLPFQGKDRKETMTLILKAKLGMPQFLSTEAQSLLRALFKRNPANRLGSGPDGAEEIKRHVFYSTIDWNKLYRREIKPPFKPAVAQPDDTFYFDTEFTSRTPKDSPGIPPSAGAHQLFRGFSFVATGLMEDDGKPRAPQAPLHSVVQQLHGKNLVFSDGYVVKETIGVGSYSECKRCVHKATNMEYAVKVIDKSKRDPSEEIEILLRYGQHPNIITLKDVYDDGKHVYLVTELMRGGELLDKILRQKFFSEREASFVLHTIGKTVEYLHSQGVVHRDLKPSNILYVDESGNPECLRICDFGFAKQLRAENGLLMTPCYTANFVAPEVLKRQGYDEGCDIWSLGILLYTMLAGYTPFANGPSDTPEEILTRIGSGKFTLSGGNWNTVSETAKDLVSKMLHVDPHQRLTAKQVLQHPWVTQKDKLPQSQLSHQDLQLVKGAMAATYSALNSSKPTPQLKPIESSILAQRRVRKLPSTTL

In experiment [1], `CNC(=O)Nc1ccc(-c2nc(N3CC4CCC(C3)O4)c3cnn(C4CCC5(CC4)OCCO5)c3n2)cc1` returned a % of control of 100%.
Regarding `CC(C)(O)[C@H](F)CN1Cc2cc(NC(=O)c3cnn4cccnc34)c(N3CCOCC3)cc2C1=O`, the dTM in experiment [2] was found to be 0.1 K.
As to `CN1Cc2nccc(-c3cn(C)nc3-c3ccc(F)cc3)c2C1=O`, in experiment [3], the % of inhibition was determined as 13%.
For `CC[C@@H]1[C@H](F)C(=O)N[C@@H]1COc1nccc2cc(C(N)=O)c(OC)cc12` [ZIMLOVISERTIB], the % of inhibition in experiment [4] was -3.6%.
The compound `COc1cc(Nc2nc(C)cc(-c3cnn4nc(OC)ccc34)n2)cc(C(F)(F)F)c1` showed a % of control in experiment [5] of 66%.
For `C=CC(=O)Nc1cccc(C(=O)Nc2ccc(Nc3cc(-c4[nH]c(SC)nc4C)ccn3)cc2)c1`, the % of control stood at 50% in experiment [6] (at 1 µM) and 11% in experiment [6] (at 5 µM).
